What was measured:
corn [1] = test: Test C postemergence; assay type: in vivo, Zea mays; settings: Zea mays, post-emergence
Method in brief: (§1)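 Seeds are planted in blended loam soil and sand and treated preemergence, while seedlings in a peat moss/vermiculite medium receive postemergence sprays at 2 to 18 cm height. All plants stay in the greenhouse for 13 to 15 days before visual comparison with controls on a 0–100 scale.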

morningglory = test: Test A postemergence; assay type: in vivo, Ipomoea spp.; settings: 0 to 100 scale where 0 is no effect and 100 is complete control
Method in brief: (§2)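 Greenhouse pot test, loam/sand soil. Formulation: non-phytotoxic solvent mix plus surfactant. Pre: directed spray onto soil after sowing. Post: plants at 1–2 leaf, 2–10 cm. Rated visually vs untreated controls at ~10 d, 0 (no effect) to 100 (complete control).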

corn [2] = test: Test A postemergence; assay type: in vivo, Zea mays; settings: Zea mays, post-emergence, 240 h, 0 to 100 scale where 0 is no effect and 100 is complete control
Method in brief: as §2

chickweed = test: Test C postemergence; assay type: in vivo, Stellaria media; settings: Stellaria media, post-emergence
Method in brief: as §1

barnyardgrass = test: Test A preemergence; assay type: in vivo, Echinochloa crus-galli; settings: Echinochloa crus-galli, pre-emergence, 240 h, 0 to 100 scale where 0 is no effect and 100 is complete control
Method in brief: as §2

lambsquarters = test: Test C preemergence; assay type: in vivo, Chenopodium album; settings: Chenopodium album, pre-emergence, preemergence, read-out: Lambsquarters plant response rating
Method in brief: as §1

ragweed = test: Test C preemergence; assay type: in vivo, Ambrosia elatior; settings: Ambrosia artemisiifolia, pre-emergence, preemergence, read-out: Ragweed plant response rating
Method in brief: as §1

large (Lg) crabgrass [3] = test: Test A postemergence; assay type: in vivo, Digitaria sanguinalis; settings: 0 to 100 scale where 0 is no effect and 100 is complete control
Method in brief: as §2

pigweed [4] = test: Test A preemergence; assay type: in vivo, Amaranthus retroflexus
Method in brief: as §2

giant foxtail [5] = test: Test C postemergence; assay type: in vivo, Setaria faberii; settings: Setaria faberi, post-emergence
Method in brief: as §1

kochia = test: Test C postemergence; assay type: in vivo, Kochia scoparia; settings: Bassia scoparia, post-emergence
Method in brief: as §1

pigweed [6] = test: Test A postemergence; assay type: in vivo, Amaranthus retroflexus; settings: Amaranthus retroflexus, post-emergence, 0 to 100 scale where 0 is no effect and 100 is complete control
Method in brief: as §2

velvetleaf = test: Test A preemergence; assay type: in vivo, Abutilon theophrasti
Method in brief: as §2

johnsongrass [7] = test: Test C postemergence; assay type: in vivo, Sorghum halepense
Method in brief: as §1

johnsongrass [8] = test: Test C preemergence; assay type: in vivo, Sorghum halepense; settings: Sorghum halepense, pre-emergence, preemergence, read-out: Johnsongrass plant response rating
Method in brief: as §1

giant foxtail [9] = test: Test A postemergence; assay type: in vivo, Setaria faberii; settings: Setaria faberi, post-emergence, 240 h, 0 to 100 scale where 0 is no effect and 100 is complete control
Method in brief: as §2

galium = test: Test C postemergence; assay type: in vivo, Galium aparine; settings: Galium, post-emergence
Method in brief: as §1

large (Lg) crabgrass [10] = test: Test C preemergence; assay type: in vivo, Digitaria sanguinalis; settings: Digitaria sanguinalis, pre-emergence
Method in brief: as §1

[11] = 16 g ai/ha, scale 0 to 100 (0 no effect, 100 complete control)
[12] = 62 g ai/ha, scale 0 (no effect) to 100 (complete control)
[13] = 125 g ai/ha, scale 0 (no effect) to 100 (complete control)

## FC(F)(F)c1cn(-c2ccccc2Oc2ncc(Cl)cn2)nn1 [Compound 166, 5-chloro-2-[2-[4-(trifluoromethyl)-1H-1,2,3-triazol-1-yl]phenoxy]pyrimidine]
Corn [1]; 16 g ai/ha, postemergence, 0 is no effect, 100 is complete control, read-out: Plant response rating (0 to 100), Corn
  plant injury at 16 g/ha: 5%
Corn [1]; 31 g ai/ha, postemergence, visual rating, scale 0 to 100 (0 no effect, 100 complete control), 13 to 15 days, read-out: Corn plant response rating
  plant injury at 31 g/ha: 5%
Corn [1]; 125 g ai/ha, postemergence, visual rating, scale 0 to 100 (0 no effect, 100 complete control)
  Corn plant response rating (crop injury, 0 = no effect, 100 = complete kill) at 125 g/ha: 15%
Corn [1]; Postemergence, 62 g ai/ha, scale 0 to 100 (0 no effect, 100 complete control)
  Corn plant response rating (crop injury, 0 = no effect, 100 = complete kill) at 62 g/ha: 10%
morningglory; 125 g ai/ha
  Morningglory plant response rating: 100
morningglory; Ipomoea, post-emergence, 240 h, 500 g ai/ha, read-out: Plant response rating, Morningglory
  pest or weed control at 500 g/ha: 100%
Corn [2]; 125 g ai/ha, read-out: Corn plant response rating
  plant injury at 125 g/ha: 50%
Corn [2]; 500 g ai/ha
  Corn plant response rating (crop injury, 0 = no effect, 100 = complete kill) at 500 g/ha: 60%
chickweed; 16 g ai/ha, postemergence, 0 is no effect, 100 is complete control, read-out: Plant response rating (0 to 100), Chickweed
  pest or weed control at 16 g/ha: 60%
chickweed; 31 g ai/ha, postemergence, visual rating, scale 0 to 100 (0 no effect, 100 complete control), 13 to 15 days, read-out: Chickweed plant response rating
  pest or weed control at 31 g/ha: 80%
chickweed; 125 g ai/ha, postemergence, visual rating, scale 0 to 100 (0 no effect, 100 complete control), read-out: Plant response rating, Chickweed
  pest or weed control at 125 g/ha: 95%
chickweed; Postemergence, 62 g ai/ha, scale 0 to 100 (0 no effect, 100 complete control), read-out: Plant response rating, Chickweed
  pest or weed control at 62 g/ha: 90%
barnyardgrass; 125 g ai/ha, read-out: Plant response rating, Barnyardgrass
  pest or weed control at 125 g/ha: 90%
barnyardgrass; 500 g ai/ha, read-out: Barnyardgrass plant response rating
  pest or weed control at 500 g/ha: 100%
lambsquarters; [11]
  pest or weed control at 16 g/ha: 90%
lambsquarters; [12]
  pest or weed control at 62 g/ha: 98%
lambsquarters; [13]
  pest or weed control at 125 g/ha: 98%
ragweed; [11]
  pest or weed control at 16 g/ha: 50%
ragweed; [12]
  pest or weed control at 62 g/ha: 95%
ragweed; [13]
  pest or weed control at 125 g/ha: 95%
Large (Lg) crabgrass [3]; 125 g ai/ha
  Crabgrass, Large plant response rating: 90
Large (Lg) crabgrass [3]; Digitaria sanguinalis, post-emergence, 240 h, 500 g ai/ha, read-out: Plant response rating, Crabgrass, Large
  pest or weed control at 500 g/ha: 100%
Pigweed [4]; 125 g ai/ha
  Pigweed plant response rating (0 to 100 scale): 100
Pigweed [4]; Amaranthus retroflexus, pre-emergence, 240 h, 500 g ai/ha, 0 to 100 scale where 0 is no effect and 100 is complete control, read-out: Pigweed plant response rating
  pest or weed control at 500 g/ha: 100%
Giant foxtail [5]; 16 g ai/ha, postemergence, 0 is no effect, 100 is complete control, read-out: Plant response rating (0 to 100), Foxtail, Giant
  pest or weed control at 16 g/ha: 5%
Giant foxtail [5]; 31 g ai/ha, postemergence, visual rating, scale 0 to 100 (0 no effect, 100 complete control), 13 to 15 days, read-out: Foxtail, Giant plant response rating
  pest or weed control at 31 g/ha: 5%
Giant foxtail [5]; 125 g ai/ha, postemergence, visual rating, scale 0 to 100 (0 no effect, 100 complete control), read-out: Plant response rating, Foxtail, Giant
  pest or weed control at 125 g/ha: 35%
Giant foxtail [5]; Postemergence, 62 g ai/ha, scale 0 to 100 (0 no effect, 100 complete control), read-out: Plant response rating, Foxtail, Giant
  pest or weed control at 62 g/ha: 10%
kochia; 16 g ai/ha, postemergence, 0 is no effect, 100 is complete control, read-out: Plant response rating (0 to 100), Kochia
  pest or weed control at 16 g/ha: 90%
kochia; 31 g ai/ha, postemergence, visual rating, scale 0 to 100 (0 no effect, 100 complete control), 13 to 15 days, read-out: Kochia plant response rating
  pest or weed control at 31 g/ha: 90%
kochia; 125 g ai/ha, postemergence, visual rating, scale 0 to 100 (0 no effect, 100 complete control), read-out: Plant response rating, Kochia
  pest or weed control at 125 g/ha: 100%
kochia; Postemergence, 62 g ai/ha, scale 0 to 100 (0 no effect, 100 complete control), read-out: Plant response rating, Kochia
  pest or weed control at 62 g/ha: 90%
Pigweed [6]; 500 g ai/ha, read-out: Plant response rating, Pigweed
  pest or weed control at 500 g/ha: 100%
Pigweed [6]; 240 h, 125 g ai/ha, read-out: Pigweed plant response rating
  pest or weed control at 125 g/ha: 100%
velvetleaf; 125 g ai/ha
  Velvetleaf plant response rating (0 to 100 scale): 100
velvetleaf; Abutilon theophrasti, pre-emergence, 240 h, 500 g ai/ha, 0 to 100 scale where 0 is no effect and 100 is complete control, read-out: Velvetleaf plant response rating
  pest or weed control at 500 g/ha: 100%
Johnsongrass [7]; 31 g ai/ha, postemergence, visual rating, scale 0 to 100 (0 no effect, 100 complete control), 13 to 15 days
  Johnsongrass plant response rating: 5
Johnsongrass [7]; Sorghum halepense, post-emergence, 16 g ai/ha, postemergence, 0 is no effect, 100 is complete control, read-out: Plant response rating (0 to 100), Johnsongrass
  pest or weed control at 16 g/ha: 5%
Johnsongrass [7]; Sorghum halepense, post-emergence, 125 g ai/ha, postemergence, visual rating, scale 0 to 100 (0 no effect, 100 complete control), read-out: Plant response rating, Johnsongrass
  pest or weed control at 125 g/ha: 5%
Johnsongrass [7]; Sorghum halepense, post-emergence, Postemergence, 62 g ai/ha, scale 0 to 100 (0 no effect, 100 complete control), read-out: Plant response rating, Johnsongrass
  pest or weed control at 62 g/ha: 5%
Johnsongrass [8]; [11]
  pest or weed control at 16 g/ha: 5%
Johnsongrass [8]; [12]
  pest or weed control at 62 g/ha: 85%
Johnsongrass [8]; [13]
  pest or weed control at 125 g/ha: 95%
Giant foxtail [9]; 125 g ai/ha, read-out: Foxtail, Giant plant response rating
  pest or weed control at 125 g/ha: 90%
Giant foxtail [9]; 500 g ai/ha, read-out: Plant response rating, Foxtail, Giant
  pest or weed control at 500 g/ha: 90%
galium; 16 g ai/ha, postemergence, 0 is no effect, 100 is complete control, read-out: Plant response rating (0 to 100), Galium
  pest or weed control at 16 g/ha: 80%
galium; 31 g ai/ha, postemergence, visual rating, scale 0 to 100 (0 no effect, 100 complete control), 13 to 15 days, read-out: Galium plant response rating
  pest or weed control at 31 g/ha: 85%
galium; 125 g ai/ha, postemergence, visual rating, scale 0 to 100 (0 no effect, 100 complete control), read-out: Plant response rating, Galium
  pest or weed control at 125 g/ha: 95%
galium; Postemergence, 62 g ai/ha, scale 0 to 100 (0 no effect, 100 complete control), read-out: Plant response rating, Galium
  pest or weed control at 62 g/ha: 90%
Large (Lg) crabgrass [10]; 16 g ai/ha, preemergence, scale 0 to 100 (0 no effect, 100 complete control), read-out: Crabgrass, Large plant response rating
  pest or weed control at 16 g/ha: 100%
Large (Lg) crabgrass [10]; 62 g ai/ha, preemergence, scale 0 (no effect) to 100 (complete control), read-out: Crabgrass, Large plant response rating
  pest or weed control at 62 g/ha: 100%
Large (Lg) crabgrass [10]; 125 g ai/ha, preemergence, scale 0 (no effect) to 100 (complete control), read-out: Crabgrass, Large plant response rating
  pest or weed control at 125 g/ha: 100%
Large (Lg) crabgrass [10]; Preemergence, 31 g ai/ha, scale 0 to 100, 0 no effect, 100 complete control, read-out: Plant response rating, Crabgrass, Large
  pest or weed control at 31 g/ha: 100%

Source: US9695155B2, “Herbicidal substituted pyrimidinyloxy benzene compounds” (E. I. DU PONT DE NEMOURS AND COMPANY, priority 2013, dated 2017)
